Measured values taken from patent publication US20230233569A1 (Revolution Medicines, Inc., priority 2020, published 2023).
Where “and” joins values, the source holds several entries; their conditions need not be identical. Identical values can stand only once.

Experiments:
Assay in all cases: Disruption of BRAF RBD interaction with Ras (FRET / MOA assay, with Cyclophilin A)
Type in all cases: biochemical
KRAS Q61H = KRAS Q61H (Homo sapiens, UniProt P01116+P62937, Q61H); conditions: KRAS Q61H; read-out: KRAS Q61H FRET data IC50
Excerpt: (§1) Disruption of B-Raf Ras-Binding Domain (BRAF^RBD) Interaction with K-Ras by Compounds of the Invention (Also Called a FRET Assay or an MOA Assay)
(§2) Note—The following protocol describes a procedure for monitoring disruption of K-Ras G12C (GMP-PNP) binding to BRAF^RBD by a compound of the invention. This protocol may also be executed substituting other Ras proteins or nucleotides.
(§3) The purpose of this biochemical assay was to measure the ability of test compounds to facilitate ternary complex formation between a nucleotide-loaded K-Ras isoform and Cyclophilin A; the resulting ternary complex disrupts binding to a BRAF^RBD construct, inhibiting K-Ras signaling through a RAF effector. Data is reported as IC50 values.
(§4) In assay buffer containing 25 mM HEPES pH 7.3, 0.002% Tween20, 0.1% BSA, 100 mM NaCl and 5 mM MgCl2, tagless Cyclophilin A, His6-K-Ras-GMPPNP, and GST-BRAF^RBD were combined in a 384-well assay plate at final concentrations of 25 μM, 12.5 nM and 50 nM, respectively. Compound was present in plate wells as a 10-point 3-fold dilution series starting at a final concentration of 30 μM. After incubation at 25° C. for 3 hours, a mixture of Anti-His Eu-W1024 and anti-GST allophycocyanin was then added to assay sample wells at final concentrations of 10 nM and 50 nM, respectively, and the reaction incubated for an additional 1.5 hours. […] Compounds that facilitate disruption of a K-Ras:RAF complex were identified as those eliciting a decrease in the TR-FRET ratio relative to DMSO control wells.
as §3, with “BRAF^RBDD” for “BRAF^RBD”

NRAS Q61K = NRAS Q61K (Homo sapiens, UniProt P01111+P62937, Q61K); conditions: NRAS Q61K; read-out: NRAS Q61K FRET data IC50
Excerpt: as §1, §2, §3, §4
as §3, with “BRAF^RBDD” for “BRAF^RBD”

NRAS G12C = NRAS G12C (Homo sapiens, UniProt P01111+P62937, G12C); conditions: NRAS G12C; read-out: NRAS G12C FRET data IC50
KRAS G12C = KRAS G12C (Homo sapiens, UniProt P01116+P62937, G12C); conditions: KRAS G12C; read-out: KRAS G12C FRET data IC50
In short: (§5)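 Compound-driven ternary complex formation between nucleotide-loaded K-Ras and Cyclophilin A was measured as loss of BRAF RBD binding. Compounds (10-point 3-fold series, top 30 μM final) were incubated 3 h at 25 °C, then anti-His Eu-W1024 (10 nM) and anti-GST allophycocyanin (50 nM) added for 1.5 h. IC50 was taken from the TR-FRET ratio decrease versus DMSO.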

KRAS G13D = KRAS G13D (Homo sapiens, UniProt P01116+P62937, G13D); conditions: KRAS G13D; read-out: KRAS G13D FRET data IC50
In short: as §5

KRAS WT = KRAS WT (Homo sapiens, UniProt P01116+P62937); conditions: KRAS WT; read-out: KRAS WT FRET data IC50
In short: as §5

KRAS G12S = KRAS G12S (Homo sapiens, UniProt P01116+P62937, G12S); conditions: read-out: KRAS G12S FRET data, IC50
In short: as §5

KRAS G13C = KRAS G13C (Homo sapiens, UniProt P01116+P62937, G13C); conditions: KRAS G13C; read-out: KRAS G13C FRET data IC50
In short: as §5

KRAS G12V = KRAS G12V (Homo sapiens, UniProt P01116+P62937, G12V); conditions: KRAS G12V; read-out: KRAS G12V FRET data IC50
In short: as §5

KRAS G12D = KRAS G12D (Homo sapiens, UniProt P01116+P62937, G12D); conditions: read-out: KRAS G12D FRET data, IC50
In short: as §5

NRAS Q61R = NRAS Q61R (Homo sapiens, UniProt P01111+P62937, Q61R); conditions: NRAS Q61R; read-out: NRAS Q61R FRET data IC50
Excerpt: as §1, §2, §3, §4
as §3, with “BRAF^RBDD” for “BRAF^RBD”

Chain of KRAS WT (P01116 1-169 isoform P01116-2 limits assumed): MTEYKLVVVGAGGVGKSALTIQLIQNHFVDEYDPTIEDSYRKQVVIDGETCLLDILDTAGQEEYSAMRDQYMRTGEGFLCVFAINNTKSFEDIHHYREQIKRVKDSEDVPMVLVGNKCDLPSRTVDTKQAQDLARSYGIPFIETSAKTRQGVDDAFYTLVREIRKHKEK
Chain of KRAS WT (P62937 whole entry): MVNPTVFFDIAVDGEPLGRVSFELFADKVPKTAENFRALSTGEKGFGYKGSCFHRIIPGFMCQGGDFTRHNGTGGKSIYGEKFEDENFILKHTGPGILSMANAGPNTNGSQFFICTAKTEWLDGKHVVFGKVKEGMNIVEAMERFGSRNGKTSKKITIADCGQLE
Chain of KRAS G12S (P01116 1-169 isoform P01116-2 G12S limits assumed): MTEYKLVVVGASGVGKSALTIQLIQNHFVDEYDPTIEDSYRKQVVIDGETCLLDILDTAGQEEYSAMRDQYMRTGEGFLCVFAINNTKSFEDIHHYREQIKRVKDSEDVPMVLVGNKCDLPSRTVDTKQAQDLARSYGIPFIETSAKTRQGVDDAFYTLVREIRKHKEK
Chain of KRAS G12S (P62937 whole entry): as the sequence (P62937 whole entry) above
Chain of NRAS Q61R (P01111 whole entry Q61R): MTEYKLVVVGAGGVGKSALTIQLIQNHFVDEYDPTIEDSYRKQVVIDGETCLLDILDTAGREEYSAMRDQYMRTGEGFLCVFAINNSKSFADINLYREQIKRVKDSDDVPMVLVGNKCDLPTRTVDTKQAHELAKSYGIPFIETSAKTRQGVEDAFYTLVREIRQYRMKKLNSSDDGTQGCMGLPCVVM
Chain of NRAS Q61R (P62937 whole entry): as the sequence (P62937 whole entry) above
Chain of KRAS G13C (P01116 1-169 isoform P01116-2 G13C): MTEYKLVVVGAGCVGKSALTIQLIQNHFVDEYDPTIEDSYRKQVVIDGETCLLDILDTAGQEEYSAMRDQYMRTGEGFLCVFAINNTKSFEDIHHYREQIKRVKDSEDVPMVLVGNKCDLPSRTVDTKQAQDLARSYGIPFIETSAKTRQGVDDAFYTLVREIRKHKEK
Chain of KRAS G13C (P62937 whole entry): as the sequence (P62937 whole entry) above
Chain of KRAS Q61H (P01116 1-169 isoform P01116-2 Q61H limits assumed): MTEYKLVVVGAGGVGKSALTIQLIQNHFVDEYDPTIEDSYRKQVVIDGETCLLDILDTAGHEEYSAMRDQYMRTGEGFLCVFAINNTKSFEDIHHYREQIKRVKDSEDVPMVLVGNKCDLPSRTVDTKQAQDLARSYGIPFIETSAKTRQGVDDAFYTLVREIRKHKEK
Chain of KRAS Q61H (P62937 whole entry, the tested form may be a part): as the sequence (P62937 whole entry) above
Chain of KRAS G12C (P01116 1-169 isoform P01116-2 G12C): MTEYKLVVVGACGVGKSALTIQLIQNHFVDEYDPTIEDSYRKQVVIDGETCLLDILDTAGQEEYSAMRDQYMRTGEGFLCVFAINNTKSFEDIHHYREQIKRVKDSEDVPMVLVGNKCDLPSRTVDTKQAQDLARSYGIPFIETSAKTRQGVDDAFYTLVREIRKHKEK
Chain of KRAS G12C (P62937 whole entry): as the sequence (P62937 whole entry) above
Chain of NRAS Q61K (P01111 whole entry Q61K): as the sequence (P01111 whole entry Q61R) above, with R61K counted along it
Chain of NRAS Q61K (P62937 whole entry): as the sequence (P62937 whole entry) above
Chain of KRAS G12V (P01116 1-169 isoform P01116-2 G12V limits assumed): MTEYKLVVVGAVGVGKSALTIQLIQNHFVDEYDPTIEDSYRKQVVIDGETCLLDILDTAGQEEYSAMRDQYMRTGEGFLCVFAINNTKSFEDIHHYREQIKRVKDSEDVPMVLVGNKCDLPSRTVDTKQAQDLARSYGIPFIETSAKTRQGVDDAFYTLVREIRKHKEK
Chain of KRAS G12V (P62937 whole entry): as the sequence (P62937 whole entry) above
Chain of KRAS G12D (P01116 1-169 isoform P01116-2 G12D limits assumed): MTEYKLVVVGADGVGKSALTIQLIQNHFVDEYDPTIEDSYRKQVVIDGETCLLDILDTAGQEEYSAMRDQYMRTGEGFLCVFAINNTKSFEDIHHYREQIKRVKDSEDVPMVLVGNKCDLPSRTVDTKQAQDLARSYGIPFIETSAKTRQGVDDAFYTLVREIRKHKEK
Chain of KRAS G12D (P62937 whole entry): as the sequence (P62937 whole entry) above
Chain of NRAS G12C (P01111 whole entry G12C): as the sequence (P01111 whole entry Q61R) above, with G12C, R61Q counted along it
Chain of NRAS G12C (P62937 whole entry): as the sequence (P62937 whole entry) above
Chain of KRAS G13D (P01116 1-169 isoform P01116-2 G13D limits assumed): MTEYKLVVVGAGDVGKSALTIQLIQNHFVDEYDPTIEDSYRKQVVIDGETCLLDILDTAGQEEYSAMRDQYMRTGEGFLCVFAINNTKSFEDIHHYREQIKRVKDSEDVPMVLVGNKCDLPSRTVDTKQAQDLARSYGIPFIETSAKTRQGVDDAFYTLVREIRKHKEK
Chain of KRAS G13D (P62937 whole entry): as the sequence (P62937 whole entry) above

Row | IC50 (KRAS Q61H) [nM] | IC50 (NRAS Q61K) [nM] | IC50 (NRAS G12C) [nM] | IC50 (KRAS G12C) [nM] | IC50 (KRAS G13D) [nM] | IC50 (KRAS WT) [nM] | IC50 (KRAS G12S) | IC50 (KRAS G13C) [nM] | IC50 (KRAS G12V) [nM] | IC50 (KRAS G12D) [nM] | IC50 (NRAS Q61R) [nM] | Structure (SMILES)
1 | 10 to 100 | 10 to 100 |  |  |  |  |  |  |  |  |  | CCn1c(-c2cccnc2[C@H](C)OC)c2c3cc(ccc31)-c1csc(n1)C[C@H](NC(=O)[C@H](C(C)C)N(C)C(=O)N1CC3(CN(C)C3)C1)C(=O)N1CCC[C@H](N1)C(=O)OCC(C)(C)C2 (atropisomer, axis not shown) [Example A268]
2 | 100 to 1000 |  | 100 to 1000 | 100 to 1000 | 1000 to 10000 |  |  |  |  |  |  | CCn1c(-c2cccnc2[C@H](C)OC)c2c3cc(ccc31)-c1cccc(c1)C[C@H](NC(=O)[C@H](C(C)C)N(C)C(=O)N1CCC13CN(C(=O)C#CC(C)(C)N(C)C)C3)C(=O)N1CCC[C@H](N1)C(=O)OCC(C)(C)C2 (atropisomer, axis not shown) [Example A717]
3 | 10 to 100 | 100 to 1000 |  | 10 to 100 |  | 100 to 1000 | 100 to 1000 nM | 100 to 1000 | 100 to 1000 | 1000 to 10000 | 100 to 1000 | C=CC(=O)N1CC[C@H](C(=O)N(C)[C@H](C(=O)N[C@H]2Cc3cc(O)cc(c3)-c3ccc4c(c3)c(c(-c3ccccc3[C@H](C)OC)n4CC)CC(C)(C)COC(=O)[C@@H]3CCCN(N3)C2=O)C(C)C)C1 [Example A022]
4 | 1000 to 10000 | 1000 to 10000 |  | 100 to 1000 |  | 1000 to 10000 | 1000 to 10000 nM | 1000 to 10000 | 1000 to 10000 | > 10000 | > 10000 | C=CC(=O)N1CC[C@H](C(=O)N(C)[C@H](C(=O)N[C@H]2Cc3cc(O)cc(c3)-c3ccc4c(c3)c(c(-c3c(F)cccc3CCOC)n4CC)CC(C)(C)COC(=O)[C@@H]3CCCN(N3)C2=O)C(C)C)C1 [Example A025]
5 | 1000 to 10000 | > 10000 |  | 100 to 1000 |  | > 10000 | > 10000 nM | > 10000 | > 10000 | > 10000 | > 10000 | C=CC(=O)N1CC[C@H](C(=O)N(C)[C@H](C(=O)N[C@H]2Cc3cc(O)cc(c3)-c3ccc4c(c3)c(c(-c3ccccc3N3CCOCC3)n4CC)CC(C)(C)COC(=O)[C@@H]3CCCN(N3)C2=O)C(C)C)C1 [Example A026]
6 | 100 to 1000 | 1000 to 10000 |  | 100 to 1000 |  | 1000 to 10000 | 1000 to 10000 nM | 1000 to 10000 | 1000 to 10000 | > 10000 | > 10000 | C=CC(=O)N1CC[C@H](C(=O)N(C)[C@H](C(=O)N[C@H]2Cc3cc(O)cc(c3)-c3ccc4c(c3)c(c(-c3cccnc3)n4CC)CC(C)(C)COC(=O)[C@@H]3CCCN(N3)C2=O)C(C)C)C1 [Example A045]
7 | 1000 to 10000 | > 10000 |  | 100 to 1000 |  | > 10000 | 1000 to 10000 nM and > 10000 nM | > 10000 | > 10000 | > 10000 | > 10000 | C=CC(=O)N1CC[C@H](C(=O)N(C)[C@H](C(=O)N[C@H]2Cc3cc(O)cc(c3)-c3cc(F)c4c(c3)c(c(-c3ccccc3CCOC)n4CC)CC(C)(C)COC(=O)[C@@H]3CCCN(N3)C2=O)C(C)C)C1 [Example A053]
8 | 1000 to 10000 | 1000 to 10000 |  | 100 to 1000 |  | > 10000 | 1000 to 10000 nM | 1000 to 10000 | 1000 to 10000 | > 10000 | > 10000 | C=CC(=O)N1CC[C@H](C(=O)N(C)[C@H](C(=O)N[C@H]2Cc3cc(O)cc(c3)-c3ccc4c(c3)c(c(-c3cccnc3N3CC(OC)C3)n4CC)CC(C)(C)COC(=O)[C@@H]3CCCN(N3)C2=O)C(C)C)C1 [Example A060]
9 | 1000 to 10000 | 1000 to 10000 |  | 100 to 1000 |  | 1000 to 10000 | 1000 to 10000 nM | 1000 to 10000 | 1000 to 10000 | > 10000 | > 10000 | C=CC(=O)N1CC[C@H](C(=O)N(C)[C@H](C(=O)N[C@H]2Cc3cc(O)cc(c3)-c3ccc4c(c3)c(c(-c3cncnc3)n4CC)CC(C)(C)COC(=O)[C@@H]3CCCN(N3)C2=O)C(C)C)C1 [Example A061]
10 | 100 to 1000 | 1000 to 10000 |  | 10 to 100 |  | 1000 to 10000 | 100 to 1000 nM | 1000 to 10000 | 1000 to 10000 | > 10000 | 1000 to 10000 | C=CC(=O)N1CC[C@H](C(=O)N(C)[C@H](C(=O)N[C@H]2Cc3cc(O)cc(c3)-c3ccc4c(c3)c(c(C3=C(COC)CCCC3)n4CC)CC(C)(C)COC(=O)[C@@H]3CCCN(N3)C2=O)C(C)C)C1 [Example A064]
11 | 100 to 1000 |  |  |  |  |  |  | 100 to 1000 |  |  | 1000 to 10000 | C=CC(=O)N1CC[C@H](C(=O)N(C)[C@H](C(=O)N[C@H]2Cc3cc(O)cc(c3)-c3ccc4c(c3)c(c(-c3cccnc3)n4C(C)(C)C#N)CC(C)(C)COC(=O)[C@@H]3CCCN(N3)C2=O)C(C)C)C1 [Example A074]
12 | 10 to 100 | 100 to 1000 |  | 10 to 100 |  | 100 to 1000 | 100 to 1000 nM | 100 to 1000 | 100 to 1000 | 1000 to 10000 | 1000 to 10000 | C=CC(=O)N1CC[C@H](C(=O)N(C)[C@H](C(=O)N[C@H]2Cc3cc(O)cc(c3)-c3ccc4c(c3)c(c(-c3cnccc3C)n4CC)CC(C)(C)COC(=O)[C@@H]3CCCN(N3)C2=O)C(C)C)C1 [Example A077]
13 | 1000 to 10000 | 1000 to 10000 |  | 100 to 1000 |  | > 10000 | > 10000 nM | > 10000 | 1000 to 10000 | > 10000 | > 10000 | C=CC(=O)N1CC[C@H](C(=O)N(C)[C@H](C(=O)N[C@H]2Cc3cc(O)cc(c3)-c3ccc4c(c3)c(c(-c3c(CCOC)cccc3OC)n4CC)CC(C)(C)COC(=O)[C@@H]3CCCN(N3)C2=O)C(C)C)C1 [Example A080]
14 | 10 to 100 | 100 to 1000 |  | 10 to 100 |  | 100 to 1000 | 100 to 1000 nM | 100 to 1000 | 100 to 1000 | 1000 to 10000 | 100 to 1000 | C=CC(=O)N1CC[C@H](C(=O)N(C)[C@H](C(=O)N[C@H]2Cc3cc(O)cc(c3)-c3ccc4c(c3)c(c(-c3cc(F)cnc3COC)n4CC)CC(C)(C)COC(=O)[C@@H]3CCCN(N3)C2=O)C(C)C)C1 [Example A082]
15 | 100 to 1000 | 1000 to 10000 |  | 10 to 100 |  | 1000 to 10000 | 100 to 1000 nM | 1000 to 10000 | 1000 to 10000 | > 10000 | 1000 to 10000 | C=CC(=O)N1CC[C@H](C(=O)N(C)[C@H](C(=O)N[C@H]2Cc3cc(O)cc(c3)-c3ccc4c(c3)c(c(-c3cncc(COC)c3)n4CC)CC(C)(C)COC(=O)[C@@H]3CCCN(N3)C2=O)C(C)C)C1 [Example A083]
16 | 1000 to 10000 | > 10000 |  | 1000 to 10000 |  | > 10000 | > 10000 nM | > 10000 | > 10000 | > 10000 | > 10000 | C=CC(=O)N1CC[C@H](C(=O)N(C)[C@H](C(=O)N[C@H]2Cc3cc(O)cc(c3)-c3ccc4c(c3)c(c(-c3nccnc3COC)n4CC)CC(C)(C)COC(=O)[C@@H]3CCCN(N3)C2=O)C(C)C)C1 [Example A085]
